{"source": "ChEMBL document CHEMBL1127579", "about": "“Novel, potent luteinizing hormone-releasing hormone antagonists with improved solubility in water” (1994)", "format_in_all_cases": "functional", "key": {"[1]": {"species": "Rattus norvegicus", "assay": "Antiovulatory activity expressed as ratio of rats ovulated/total rats at a dose of 0.5 microg; 2/5"}, "[2]": {"species": "Rattus norvegicus", "assay": "Antiovulatory activity expressed as ratio of rats ovulated/total rats at a dose of 0.5 microg; 3/8"}, "[3]": {"species": "Rattus norvegicus", "assay": "Evaluated for histamine releasing activity"}, "[4]": {"species": "Rattus norvegicus", "assay": "Antiovulatory activity expressed as ratio of rats ovulated/total rats at a dose of 1.0 ug; 0/8"}, "[5]": {"species": "Rattus norvegicus", "assay": "Antiovulatory activity expressed as ratio of rats ovulated/total rats at a dose of 1.0 ug; 0/10"}, "[6]": {"species": "Rattus norvegicus", "assay": "Antiovulatory activity expressed as ratio of rats ovulated/total rats at a dose of 0.5 microg; 9/25"}, "[7]": {"species": "Rattus norvegicus", "assay": "Antiovulatory activity expressed as ratio of rats ovulated/total rats at a dose of 0.5 microg; 6/7"}, "[8]": {"species": "Rattus norvegicus", "assay": "Antiovulatory activity expressed as ratio of rats ovulated/total rats at a dose of 0.5 microg; 4/5"}, "[9]": {"species": "Rattus norvegicus", "assay": "Antiovulatory activity expressed as ratio of rats ovulated/total rats at a dose of 0.5 microg; 5/8"}}, "data": [{"compound": "CC(=O)N[C@H](Cc1ccc2ccccc2c1)C(=O)N[C@H](Cc1ccc(Cl)cc1)C(=O)N[C@H](Cc1cccnc1)C(=O)N[C@@H](CO)C(=O)N[C@@H](CCCCNC(=O)c1ccccn1)C(=O)N[C@H](CCCCNC(=O)c1cccnc1N)C(=O)N[C@@H](CC(C)C)C(=O)N[C@@H](CCCCNC(C)C)C(=O)N1CCC[C@H]1C(=O)N[C@H](C)C(=O)O", "values": [{"measurement": "Ratio", "setting": "[1]", "result": 2}]}, {"compound": "CC(=O)N[C@H](Cc1ccc2ccccc2c1)C(=O)N[C@H](Cc1ccc(Cl)cc1)C(=O)N[C@H](Cc1cccnc1)C(=O)N[C@@H](CO)C(=O)N[C@@H](CCCCNC(=O)c1ccccn1)C(=O)N[C@H](CCCCNC(=O)c1cccnc1)C(=O)N[C@@H](CC(C)C)C(=O)N[C@@H](CCCCN)C(=O)N1CCC[C@H]1C(=O)N[C@H](C)C(=O)O", "values": [{"measurement": "Ratio", "setting": "[2]", "result": 3}, {"measurement": "ED50", "setting": "[3]", "result": 39, "unit": "µg/mL"}, {"measurement": "Ratio", "setting": "[4]", "result": 0}]}, {"compound": "CC(=O)N[C@H](Cc1ccc2ccccc2c1)C(=O)N[C@H](Cc1ccc(Cl)cc1)C(=O)N[C@H](Cc1cccnc1)C(=O)N[C@@H](CO)C(=O)N[C@@H](CCCCNC(=O)c1cccnc1)C(=O)N[C@H](CCCCNC(=O)c1cccnc1)C(=O)N[C@@H](CC(C)C)C(=O)N[C@@H](CCCCN)C(=O)N1CCC[C@H]1C(=O)N[C@H](C)C(=O)O", "values": [{"measurement": "Ratio", "setting": "[5]", "result": 0}, {"measurement": "ED50", "setting": "[3]", "result": "> 300", "unit": "µg/mL"}, {"measurement": "Ratio", "setting": "[6]", "result": 9}]}, {"compound": "CC(=O)N[C@H](Cc1ccc2ccccc2c1)C(=O)N[C@H](Cc1ccc(Cl)cc1)C(=O)N[C@H](Cc1cccnc1)C(=O)N[C@@H](CO)C(=O)N[C@@H](CCCCNC(=O)c1nccnc1N)C(=O)N[C@H](CCCCNC(=O)c1nccnc1N)C(=O)N[C@@H](CC(C)C)C(=O)N[C@@H](CCCCNC(C)C)C(=O)N1CCC[C@H]1C(=O)N[C@H](C)C(=O)O", "values": [{"measurement": "Ratio", "setting": "[7]", "result": 6}]}, {"compound": "CC(=O)N[C@H](Cc1ccc2ccccc2c1)C(=O)N[C@H](Cc1ccc(Cl)cc1)C(=O)N[C@H](Cc1cccnc1)C(=O)N[C@@H](CO)C(=O)N[C@@H](CCCNC(=O)c1cnccn1)C(=O)N[C@H](CCCNC(=O)c1ccc(N)nc1)C(=O)N[C@@H](CC(C)C)C(=O)N[C@@H](CCCN=C(N)N)C(=O)N1CCC[C@H]1C(=O)N[C@H](C)C(=O)O", "values": [{"measurement": "Ratio", "setting": "[8]", "result": 4}]}, {"compound": "CC(=O)N[C@H](Cc1ccc2ccccc2c1)C(=O)N[C@H](Cc1ccc(Cl)cc1)C(=O)N[C@H](Cc1cccnc1)C(=O)N[C@@H](CO)C(=O)N[C@@H](CCCCNC(=O)c1cccnc1)C(=O)N[C@H](CCCCNC(=O)c1ccccn1)C(=O)N[C@@H](CC(C)C)C(=O)N[C@@H](CCCCN)C(=O)N1CCC[C@H]1C(=O)N[C@H](C)C(=O)O", "values": [{"measurement": "ED50", "setting": "[3]", "result": 60, "unit": "µg/mL"}, {"measurement": "Ratio", "setting": "[9]", "result": 5}]}]}
